Columns and labels:
[1] = wn = mass fraction of the nth substance listed; details: 101 kPa, Liquid, Vibrating tube method
[2] = xn = mol fraction of the nth substance listed; details: 101 kPa, Liquid, Vibrating tube method

CCCC[N+](CCCC)(CCCC)CCCC.[Br-] [tetrabutylammonium bromide] + O
mass density [kg/m3], [1]
Details | w1 = 0.0697 | w1 = 0.0999 | w1 = 0.15 | w1 = 0.1996 | w1 = 0.25 | w1 = 0.2998 | w1 = 0.3499 | w1 = 0.4002 | w1 = 0.4498 | w1 = 0.5
293.15 K | 1003.85 | 1006.63 | 1011.35 | 1017.09 | 1021.73 | – | 1030.98 | 1036.25 | 1041.41 | 1044.73
298.15 K | 1002.43 | 1005.08 | 1009.55 | 1015.11 | 1019.26 | 1027.44 | 1027.91 | 1032.9 | 1037.83 | 1041.06
303.15 K | 1000.8 | 1003.31 | 1007.54 | 1012.76 | 1016.66 | 1024.31 | 1024.77 | 1029.49 | 1034.23 | 1037.36
308.15 K | 998.95 | 1001.34 | 1005.34 | 1010.24 | 1013.92 | 1021.1 | 1021.55 | 1026.04 | 1030.59 | 1033.62
313.15 K | 996.91 | 999.19 | 1002.97 | 1007.59 | 1011.06 | 1017.82 | 1018.26 | 1022.53 | 1026.92 | 1029.85
318.15 K | 994.7 | 996.86 | 1000.45 | 1004.8 | 1008.08 | 1014.47 | 1014.9 | 1018.98 | 1023.21 | 1026.05
323.15 K | 992.32 | 994.38 | 997.78 | 1001.88 | 1005 | 1011.05 | 1011.47 | 1015.38 | 1019.46 | 1022.22
328.15 K | 989.78 | 991.74 | 994.96 | 998.84 | 1001.81 | 1007.56 | 1007.97 | 1011.71 | 1015.67 | 1018.35
333.15 K | 987.09 | 988.96 | 992 | 995.69 | 998.5 | 1004 | 1004.4 | 1008 | 1011.83 | 1014.45

C1CCOC1 [tetrahydrofuran] + O
mass density [kg/m3], [2]
Details | 293.15 K | 298.15 K | 303.15 K | 308.15 K | 313.15 K | 318.15 K | 323.15 K | 328.15 K | 333.15 K
x2 = 0 | 889.47 | 885.04 | 880.76 | 876.63 | 872.62 | 868.72 | 864.91 | 861.19 | 855.57
x2 = 0.307 | 909.02 | 904.73 | 900.6 | 896.6 | 892.72 | 888.93 | 885.23 | 881.59 | 878.02
x2 = 0.5048 | 927.43 | 923.37 | 919.45 | 915.67 | 912.03 | 908.48 | 905.02 | 901.65 | 898.3
x2 = 0.6429 | 944.68 | 940.84 | 937.15 | 933.61 | 930.19 | 926.87 | 923.65 | 920.5 | 917.43
x2 = 0.8027 | 968.99 | 965.85 | 962.77 | 959.82 | 956.98 | 954.25 | 951.59 | 949.01 | 946.48
x2 = 0.8555 | 979.39 | 976.67 | 974.08 | 971.62 | 969.26 | 966.98 | 964.79 | 962.66 | 960.59
x2 = 0.9025 | 987.96 | 986.24 | 984.38 | 982.6 | 980.91 | 979.36 | 977.79 | 976.28 | 974.8
x2 = 0.9402 | 992.74 | 991.5 | 990.32 | 989.18 | 988.11 | 987.04 | 986 | 985.02 | 983.98
x2 = 0.9719 | 995.94 | 995.45 | 994.98 | 994.52 | 994.07 | 993.63 | 993.19 | 992.76 | 992.33

Source: the NIST ThermoML archive (doi:10.1016/j.jct.2009.06.014)
